{"source": "patent US20230000073A1", "about": "“A COMPOSITION FOR ACTIVATING PLANT'S NATURAL DEFENSE MECHANISMS TO EXTEND THE SHELF LIFE AND METHODS THEREOF” (GREENPOD LABS PRIVATE LIMITED, priority 2019, published 2023)", "origin": "cited, not measured here", "key": {"[1]": {"tested_on": "Apple"}, "[2]": {"tested_on": "Strawberry"}, "[3]": {"tested_on": "Tomato"}, "[4]": {"tested_on": "Watermelon"}, "[5]": {"tested_on": "Orange"}, "[6]": {"tested_on": "Banana"}, "[7]": {"tested_on": "Sweet cherry"}, "[8]": {"tested_on": "Fresh-cut Chestnut"}, "[9]": {"tested_on": "Kiwifruit"}}, "note": "“Also recorded” adds a separate entry of the source. Like-named read-outs stand apart in the source and are kept apart here.", "data": [{"smiles": "O=C(O)c1ccccc1O", "note": "[SA, 2-hydroxybenzoic acid]", "values": [{"measurement": "Reported results (effects of SA)", "setting": "[1]", "result": "Decreased ethylene, LOX activity, MDA content, DI,"}, {"measurement": "Reported results (effects of SA)", "setting": "[1]; combined with microbial antagonist", "result": "Enchaned the biological efficacy of antagonist"}, {"measurement": "Reported results (effects of SA)", "setting": "[2]", "result": "Decay, Ripenings, weight loss reduction"}, {"measurement": "Reported results (effects of SA)", "setting": "[3]", "result": "Development of red color, regulation of ACS genes expression"}, {"measurement": "Reported results (effects of SA)", "setting": "[4]", "result": "Increase in GPX, APX, CAT, SOD & GR activity,"}, {"measurement": "Reported results (effects of SA)", "setting": "[5]", "result": "SOD, GR, APX & DHAR activity & ASA/DHASA"}, {"measurement": "Reported results (effects of SA)", "setting": "[6]", "result": "Decrease in fruit softening pulp/peel ratio, reducing sugar content,"}, {"measurement": "Reported results (effects of SA)", "setting": "[7]", "result": "direct antifungal activity"}, {"measurement": "Reported results (effects of SA)", "setting": "[8]", "result": "Delayed discoloration, maintained edible quality"}, {"measurement": "Reported results (effects of SA)", "setting": "[9]", "result": "Inhibition of ethylene production, ripening &; also recorded: decay control"}]}]}
